In patent publication US8088819B2, “Derivatives of substituted 3-phenyl-1-(phenylthienyl)propan-1-ones and of 3-phenyl-1-(phenylfuranyl) propan-1-ones, preparation and use” (priority 2006, dated 2012):

Tests used:
hPPARdelta [1] = biological target: T1, hPPARdelta (Homo sapiens, UniProt Q03181); assay: PPAR activation: Gal4-hPPARδ chimera luciferase transactivation in COS-7 cells, Method 2; type: cell-based; details: COS-7, 24 h; for EC50: 1% Ultroser; for Emax: maximum percentage response relative to the reference GW501516, read-out: hPPARdelta % max
T1 construct: expressed in transfected cells; host or cells: COS-7 (monkey kidney fibroblasts)
T1 sequence (Q03181 211-439 limits assumed): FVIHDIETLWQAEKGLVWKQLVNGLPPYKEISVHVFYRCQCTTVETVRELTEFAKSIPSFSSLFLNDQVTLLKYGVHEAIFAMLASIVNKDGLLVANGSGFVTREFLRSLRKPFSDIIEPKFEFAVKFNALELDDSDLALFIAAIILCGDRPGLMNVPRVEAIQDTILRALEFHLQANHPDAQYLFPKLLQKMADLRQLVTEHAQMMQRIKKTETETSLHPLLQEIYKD
Method in brief: (§1)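 COS-7 cells were transfected with Gal4-PPAR LBD chimera plus Gal4(RE)_TkpGL3 luciferase reporter (1/10) and seeded serum-free for 4 h. Compounds at 10^−5 to 100 μm were applied for 24 h at 37° C in 1% lipid-free synthetic serum. Luciferase was read after lysis, and EC50 derived.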

hPPARalpha [2] = biological target: T2, hPPARalpha (Homo sapiens, UniProt Q07869); assay: PPAR activation: Gal4-hPPARα chimera luciferase transactivation in COS-7 cells, Method 2; type: cell-based; details: COS-7, 24 h; for EC50: 1% Ultroser; for Emax: maximum percentage response relative to the reference phenofibric acid, read-out: hPPARalpha % max
T2 construct: expressed in transfected cells; host or cells: COS-7 (monkey kidney fibroblasts)
T2 sequence (Q07869 239-466 limits assumed): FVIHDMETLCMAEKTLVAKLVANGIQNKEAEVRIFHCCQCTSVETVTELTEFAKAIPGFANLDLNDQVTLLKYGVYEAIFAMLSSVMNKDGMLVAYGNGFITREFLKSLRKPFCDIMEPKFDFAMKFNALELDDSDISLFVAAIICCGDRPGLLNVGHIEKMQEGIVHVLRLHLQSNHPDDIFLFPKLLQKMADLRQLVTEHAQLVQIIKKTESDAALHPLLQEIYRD
Method in brief: as §1

hPPARgamma [3] = biological target: T3, hPPARgamma (Homo sapiens, UniProt P37231); assay: PPAR activation: Gal4-hPPARγ chimera luciferase transactivation in COS-7 cells, Method 2; type: cell-based; details: COS-7, 24 h, Method 2; for Emax: maximum percentage response relative to the reference rosiglitazone, read-out: hPPARgamma % max; for EC50: 1% Ultroser, read-out: hPPARgamma EC50
T3 construct: expressed in transfected cells; host or cells: COS-7 (monkey kidney fibroblasts)
T3 sequence (P37231 238-503 limits assumed): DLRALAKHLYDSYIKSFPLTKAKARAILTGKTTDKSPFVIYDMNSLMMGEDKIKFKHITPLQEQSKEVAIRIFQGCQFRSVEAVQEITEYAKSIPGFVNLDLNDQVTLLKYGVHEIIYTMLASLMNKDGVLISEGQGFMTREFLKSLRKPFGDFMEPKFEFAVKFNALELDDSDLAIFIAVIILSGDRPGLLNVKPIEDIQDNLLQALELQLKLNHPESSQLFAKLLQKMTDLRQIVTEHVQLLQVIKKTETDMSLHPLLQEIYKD
Method in brief: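 Transactivation by a Gal4 DNA-binding domain–hPPARγ ligand-binding domain chimera with a Gal4(RE)-luciferase reporter, transfected into COS-7 cells (plasmid ratio 1/10).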

[4] = tested on: target genes of PPARδ in murine myocytes (C2C12); assay: Expression of target genes of PPARδ (PDK4, CPT1b, UCP2, UCP3) in murine myocytes, quantitative RT-PCR; type: cell-based; details: murine myocytes in vitro
Description: It is established that regulation of the expression of these genes is directly controlled by PPARδ in this cell type. The more the expression of the genes is increased, the greater the stimulating action of the compound according to the invention on metabolism in the muscle cells.
Cells from the murine cell line C2C12 (obtained from ECACC) are cultivated in DMEM medium (Gibco; 41965-039) with addition of 1% L-glutamine (Gibco; 25030), 1% of penicillin/streptomycin (VWR; BWSTL0022/100) and 10% decomplemented fetal calf serum (FCS. Gibco; 10270-106).
The cells are seeded on 24-well plates at a density of 50·10^3 cells/well. At confluence, the medium is replaced with a differentiating medium (basal medium with addition of 2% of horse serum (Gibco; 26050-088)), then incubated at 37° C. and 5% CO2 for 4 days in order to differentiate them to myocytes.
After 5 days of differentiation, the cells are put in a deprivation medium (basal medium without serum) for 6 hours. The cells are then treated with the compounds according to the invention in the deprivation medium. Compounds 2, 4, 7, 11, 39, 40, 46, 49 and 72 were in dose effect, corresponding to 1×, 10× and 100× their EC50 PPARδ. The compounds according to the invention were dissolved in dimethylsulfoxide (DMSO, Sigma; D5879). The cells were treated for 24 h at 37° C., 5% CO2. The effect of the compounds according to the invention was compared with the effect of DMSO alone.
After treatment, the total RNA is extracted from the cells using the NucleoSpine® 96 RNA kit (Macherey Nagel, Hoerdt, France) following the manufacturer's instructions.
1 μg of total RNA (quantified based on the UV spectrophotometer reading) was then reverse-transcribed to complementary DNA by reaction for 1 hour at 37° C. in a total volume of 30 μl containing buffer 1× (Invitrogen), 1.5 mM of DTT, 0.18 mM of dNTPs (Promega), 200 ng of pdN6 (Amersham), 30 U of RNase inhibitor (Promega) and 1 μl of MMLV-RT (Invitrogen).
The quantitative PCR experiments were carried out using the MyiQ Single-Color Real-Time PCR Detection System (Biorad, Marnes-la-Coquette, France) and were performed using the iQ SYBR Green Supermix kit following the supplier's recommendations, in 96-well plates, on 5 μl of diluted reverse-transcription reaction mixtures with a hybridization temperature of 60° C. Primer pairs specific to the PDK4, CPT1b, UCP2 and UCP3 genes under investigation were used:
The amount of fluorescence emitted is directly proportional to the amount of complementary DNA present at the start of the reaction and amplified during PCR. For each target investigated, a range is produced by successive dilutions of a pool constituted of a few microliters of various reverse-transcription reaction mixtures. The relative expression levels of each target are thus determined using the efficacy curves obtained with the points in the range.
The levels of expression of the genes of interest were then normalized relative to the level of expression of the reference gene 36B4 (whose specific primers are: sense primer: 5′-[…]-3′ (SEQ ID No. 19) and antisense primer: 5′-[…]-3′ (SEQ ID No. 20)). The induction factor, i.e. the ratio of the relative signal (induced by the compound according to the invention) to the mean of the relative values of the control group, was then calculated. The higher this factor, the greater the activating character of the compounds according to the invention with respect to gene expression. The final result is represented as the mean of the induction values in each experimental group.

hPPARalpha [5] = biological target: T2, hPPARalpha; assay: PPAR activation: Gal4-hPPARα chimera luciferase transactivation in COS-7 cells, Method 1; type: cell-based; details: COS-7, 24 h; for Emax: maximum percentage response relative to the reference phenofibric acid, read-out: hPPARalpha % max
Experimental: (§2) The activation of the PPARs was evaluated in vitro on a line of monkey kidney fibroblasts (COS-7) by measuring the transcriptional activity of chimeras constituted of the DNA binding domain of the Gal4 transcription factor of yeast and the ligand binding domain of the various PPARs. The compounds were tested at doses between 10^−5 and […] on the chimeras Gal4-PPARα, γ or δ, and the corresponding EC50 values were determined.
(§3) The COS-7 cells were obtained from the ATCC and were cultivated in DMEM medium supplemented with 10% (v/v) of fetal calf serum, 100 U/ml of penicillin (Gibco, Paisley, UK) and 2 mM of L-glutamine (Gibco, Paisley, UK). The cells were incubated at 37° C. in a humid atmosphere containing 5% CO2.
(§4) The plasmids Gal4(RE)_TkpGL3, pGal4-hPPARα, pGal4-hPPARγ, pGal4-hPPARδ and pGal4-φ are described in the literature (Raspe E et al., 1999). The constructs pGal4-hPPARα, pGal4-hPPARγ and pGal4-hPPARδ were obtained by cloning DNA fragments amplified by PCR corresponding to the DEF domains of the human nuclear receptors PPARα, PPARγ and PPARδ in the pGal4-φ vector.
(§5) The COS-7 cells in suspension were transfected with 150 ng of DNA per well, with a pGal4-PPAR/Gal4(RE)_TkpGL3 ratio of 1/10, in the presence of 10% fetal calf serum. The cells were seeded in 96-well plates (4×10^4 cells/well) and then incubated at 37° C. for 24 hours. Activation with the test compounds is carried out for 24 h at 37° C. in serum-free medium. At the end of the experiment, the cells were lysed and the luciferase activity was determined using the Steady-Lite™ HTS (Perkin Elmer) following the supplier's recommendations.

hPPARgamma [6] = biological target: T3, hPPARgamma; assay: PPAR activation: Gal4-hPPARγ chimera luciferase transactivation in COS-7 cells, Method 1; type: cell-based; details: COS-7, 24 h; for Emax: maximum percentage response relative to the reference rosiglitazone, read-out: hPPARgamma % max
Experimental: as §2, §3, §4, §5

hPPARdelta [7] = biological target: T1, hPPARdelta; assay: PPAR activation: Gal4-hPPARδ chimera luciferase transactivation in COS-7 cells, Method 1; type: cell-based; details: COS-7, 24 h; for Emax: maximum percentage response relative to the reference GW501516, read-out: hPPARdelta % max
Experimental: as §2, §3, §4, §5

SMILES	EC50 (hPPARdelta [1])	Emax (hPPARdelta [1])	EC50 (hPPARalpha [2])	Emax (hPPARalpha [2])	melting point	Emax (hPPARgamma [3])	EC50 (hPPARgamma [3])	expression of genes involved in carbohydrate and lipid metabolism and in thermoregulation [4]	EC50 (hPPARalpha [5])	Emax (hPPARalpha [5])	Emax (hPPARgamma [6])	EC50 (hPPARdelta [7])	Emax (hPPARdelta [7])	EC50 (hPPARgamma [6])
CC(C)(Oc1ccc(CCC(OCc2cccnc2)c2ccc(-c3ccc(C(F)(F)F)cc3)s2)c(Cl)c1Cl)C(=O)O (stereo not drawn) [Compound 39, 2-(2,3-dichloro-4-(3-(pyridin-3-ylmethoxy)-3-(5-(4-(trifluoromethyl)phenyl)thien-2-yl)propyl)phenoxy)-2-methylpropanoic acid]	6 nM	90%	1010 nM	36%	75 to 77 °C	52%	550 nM	stimulating effects						
COC(CCc1ccc(OC(C)(C)C(=O)O)c(Cl)c1Cl)c1ccc(-c2ccc(C(F)(F)F)cc2)s1 (stereo not drawn) [Compound 40, 2-(2,3-dichloro-4-(3-methoxy-3-(5-(4-(trifluoromethyl)phenyl)-thien-2-yl)propyl)phenoxy)-2-methylpropanoic acid]	5 nM	78.3%	590 nM	35%	46 to 48 °C	32%	990 nM	stimulating effects						
CC(C)(Oc1ccc(CCC(=O)c2ccc(-c3ccc(C(F)(F)F)cc3)s2)c(F)c1F)C(=O)O [Compound 46, 2-(2,3-difluoro-4-(3-oxo-3-(5-(4-(trifluoromethyl)phenyl)thien-2-yl)propyl)phenoxy)-2-methylpropanoic acid]					165 to 166 °C			stimulating effects	11 nM	58%	30%	18 nM	105%	
Cc1cc(CCC(=O)c2ccc(-c3ccc(C(F)(F)F)cc3)s2)cc(C)c1OC(C)(C)C(=O)O [Compound 48, 2-(2,6-dimethyl-4-(3-oxo-3-(5-(4-(trifluoromethyl)phenyl)thien-2-yl)propyl)phenoxy)-2-methylpropanoic acid]					157 to 158 °C			stimulating effects		49%	85%	6 nM	86%	560 nM
